Measured values as given in PMC3758111 (Planta medica, 2013).
Read-outs that look alike come from different tables or passages of the source.

Key:
[1] = tested on: prostaglandin E (2) production in lipopolysaccharide-stimulated RAW264.7 macrophages; details: cited from earlier work
[2] = rats, oral, as pure compound or in E. purpurea root extract; cited from earlier work
[3] = target: P-glycoprotein transporter (P-gp) (Homo sapiens, UniProt P08183); experiment: P-gp assay: calcein-AM efflux in Caco-2 cells; assay type: cell-based; details: for Concentration that significantly inhibited P-gp activity: single compounds, calcein-AM, Caco-2, p < 0.05
Caco-2 cells [4] = experiment: Glucuronidation by Caco-2 cells; details: for Compartments in which glucuronide metabolites were found: pure compound, 25 μM applied apically
[5] = 3 h after oral 60% ethanolic extract of E. angustifolia containing 0.4–2 mg of Bauer alkamide 8 and 10; cited from earlier work
Caco-2 cell monolayers = experiment: Transepithelial transfer across Caco-2 cell monolayers; assay type: in vitro ADME, human; details: for Concentration dependency of uptake / Permeation rates at 37 °C compared with 4 °C: pure compounds; for Permeation rates at 37 °C compared with 4 °C: AP-BL
[6] = as above; assay type: in vitro ADME, human; details: human
[7] = tested on: nitric oxide production in lipopolysaccharide-stimulated RAW264.7 macrophages; details: cited from earlier work
Caco-2 cells [8] = experiment: Cytotoxicity of pure compounds and extracts to Caco-2 cells; assay type: cell-based, human; details: vs control 0.3% v/v DMSO in DMEM, p < 0.05; tested 10–1000 μM
[9] = incubation with NADPH and human liver microsomes; cited from earlier work
Caco-2 monolayers = details: extracted and isolated from E. pallida roots; cited from earlier work
[10] = 100 μM, 72 h, 37°C, RPMI 1640 medium; cited from earlier work
[11] = tested on: multidrug transporter P-glycoprotein (P-gp); details: isolated from E. pallida; human proximal tubular kidney cells; cited from earlier work
[12] = Caco-2, pH 7.4, Papp, After, single compound, 10–100 μM, subsequent to deconjugation with β-glucuronidase, n=9
[13] = Caco-2, pH 7.4, Papp, Before, single compound, 10–100 μM, prior to deconjugation with β-glucuronidase, n=9

Sequence of P-glycoprotein transporter (P-gp) (P08183 whole entry): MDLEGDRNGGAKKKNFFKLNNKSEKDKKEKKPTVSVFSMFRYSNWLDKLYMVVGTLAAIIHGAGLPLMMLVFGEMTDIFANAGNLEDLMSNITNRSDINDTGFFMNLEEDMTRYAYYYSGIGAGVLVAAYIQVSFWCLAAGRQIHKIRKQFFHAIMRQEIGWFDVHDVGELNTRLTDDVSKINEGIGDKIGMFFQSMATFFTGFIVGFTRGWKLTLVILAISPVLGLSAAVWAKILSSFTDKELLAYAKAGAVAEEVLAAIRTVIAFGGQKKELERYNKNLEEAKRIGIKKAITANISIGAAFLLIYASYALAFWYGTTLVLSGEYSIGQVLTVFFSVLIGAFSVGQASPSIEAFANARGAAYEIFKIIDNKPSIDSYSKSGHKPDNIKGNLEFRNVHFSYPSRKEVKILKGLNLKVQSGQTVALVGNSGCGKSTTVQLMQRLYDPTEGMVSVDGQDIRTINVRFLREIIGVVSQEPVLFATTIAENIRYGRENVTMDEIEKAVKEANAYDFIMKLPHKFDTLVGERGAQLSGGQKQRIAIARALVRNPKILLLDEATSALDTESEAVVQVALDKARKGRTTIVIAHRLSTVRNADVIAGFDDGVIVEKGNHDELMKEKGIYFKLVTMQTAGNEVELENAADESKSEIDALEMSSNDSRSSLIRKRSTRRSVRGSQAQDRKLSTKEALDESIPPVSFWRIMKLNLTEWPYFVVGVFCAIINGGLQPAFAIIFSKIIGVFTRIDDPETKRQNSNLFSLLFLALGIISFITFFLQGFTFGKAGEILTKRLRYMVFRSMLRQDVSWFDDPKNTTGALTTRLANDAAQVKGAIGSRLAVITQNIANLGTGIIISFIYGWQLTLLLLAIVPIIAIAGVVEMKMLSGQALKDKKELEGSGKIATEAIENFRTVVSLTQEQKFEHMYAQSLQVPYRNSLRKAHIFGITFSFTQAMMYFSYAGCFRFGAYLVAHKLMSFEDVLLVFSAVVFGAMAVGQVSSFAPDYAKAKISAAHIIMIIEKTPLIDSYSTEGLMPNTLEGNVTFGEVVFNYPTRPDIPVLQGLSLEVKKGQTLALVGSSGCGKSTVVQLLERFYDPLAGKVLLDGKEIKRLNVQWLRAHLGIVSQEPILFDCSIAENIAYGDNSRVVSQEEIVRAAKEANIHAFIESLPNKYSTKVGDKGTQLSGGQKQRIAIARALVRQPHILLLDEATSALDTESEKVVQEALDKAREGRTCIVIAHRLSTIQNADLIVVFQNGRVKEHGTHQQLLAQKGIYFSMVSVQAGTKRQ

Row | Concentration that significantly inhibited P-gp activity [3] | Compartments in which glucuronide metabolites were found (Caco-2 cells [4]) | Permeation rates at 37 °C compared with 4 °C (Caco-2 cell monolayers) | Papp at 90 min [6, 12] | Papp at 90 min [6, 13] | Structure (SMILES) | Prostaglandin E (2) production ([1]; 50 μM) | Fraction of the ingested dose found in human blood [5] | Concentration dependency of uptake (Caco-2 cell monolayers; 10–100 μM) | Nitric oxide production ([7]; 50 μM) | Concentrations significantly cytotoxic to Caco-2 cells (Caco-2 cells [8]) | also measured
1 | 175 µM | only in the apical side | No significant differences | 39.8 ± 13.4 ×10⁻⁶ cm/s | 43.8 ± 11.2 ×10⁻⁶ cm/s | C/C=C\C=C/CC/C=C/C=C/C(=O)NCC(C)C [Bauer alkamide 8, (2E,4E,8Z,10Z)-N-isobutyldodeca-2,4,8,10-tetraenamide] | significantly decrease | about 5% | increased linearly and exhibited non-saturable transport | significantly decrease | > 350 µM | Glucuronide or sulfate metabolite in urine [2]: no glucuronide or sulfate metabolite was present; Papp of Bauer alkamide 8 relative to Bauer alkamide 10 (Caco-2 cell monolayers; Table 2): ~ 2.5 ×; Papp of Bauer alkamide 8 relative to Bauer alkamide 11 (Caco-2 cell monolayers; Table 2): ~ 15 ×; Metabolites formed [9]: Monohydroxylated, monoepoxidized, and N-dealkylated metabolites
2 | 205 µM | in the apical side and cell lysates | No significant differences | 18.3 ± 5.9 ×10⁻⁶ cm/s | 17.7 ± 8.8 ×10⁻⁶ cm/s | CCC/C=C\CC/C=C/C=C/C(=O)NCC(C)C [Bauer alkamide 10, (2E,4E,8Z)-N-isobutyldodeca-2,4,8-trienamide] | – | ~1% | increased linearly and exhibited non-saturable transport | – | – | –
3 | 230 µM | in the basolateral side and cell lysates | No significant differences | – | 2.8 ± 1.5 ×10⁻⁶ cm/s | CCCCCCC/C=C/C=C/C(=O)NCC(C)C [Bauer alkamide 11, (2E,4E)-N-isobutyldodeca-2,4-dienamide] | significantly decrease | – | increased linearly and exhibited non-saturable transport | significantly decrease | > 460 µM | –
4 | – | – | – | – | – | C/C=C\C#CC/C=C\CCCCCC(C)=O [Bauer ketone 24, pentadeca-(8Z, 13Z)-diene-11-yn-2-one] | – | – | – | – | > 990 µM | Prostaglandin E (2) production ([1]; 5 μM): significantly decrease; Effect on P-gp activity ([3]; single compound, tested concentrations 1–250 μM): not active; Metabolism when incubated with Bauer alkamides 8, 10 and 11 (Caco-2 cells [4]; 10–100 μM, data not shown): totally metabolized; Metabolism when administered as a single compound (Caco-2 cells [4]; Caco-2 cells): totally metabolized to more hydrophilic metabolites; Recovery relative to applied amount after β-glucuronidase treatment (Caco-2 cells [4]; contained in E. sanguinea and E. pallida extracts, basolaterally and in cell lysates): significantly increased; Apparent permeability (Caco-2 monolayers): 10 ± 3 cm/s ×10^−6; Detection of parent compound apically, basolaterally or in cell lysates (Caco-2 cell monolayers; applied as pure compound, 10–100 μM, any time point 15–90 min): not found; Recovered in the basolateral side (Caco-2 cell monolayers; compound as contained in the two Echinacea species extracts): About 5%; Papp at 90 min ([6]; Caco-2, pH 7.4, Papp from E. sanguinea or E. pallida extracts): 12 to 17 ×10⁻⁶ cm/s; Hydroperoxide intermediate formation, of the parent compound [10]: about 25%; Concentrations inhibiting P-gp [11]: 3 to 200 µg/mL; Nitric oxide production ([7]; 5 μM): significantly decrease
